Assay results taken from ChEMBL document CHEMBL1201862, “PubChem BioAssay data set” (2004).
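Each compound was tested at five concentrations against cells in 96-well plates for 48 hours. The concentration for 50% growth inhibition is given as GI50.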 Calls of active or inactive are those of the source. No stated cut-off is given here; in the data, active = GI50 up to about 1.1 µM and inactive = higher.

Experiments:
Test in all cases: inhibition of tumour cell growth, NCI panel, 48 h
786-0 = system: 786-0
EKVX = system: EKVX
HCT-116 = system: HCT-116
HOP-92 = system: HOP-92
K562 = system: K562
LXFL 529 = system: LXFL 529
NCI-H23 = system: NCI-H23
OVCAR-5 = system: OVCAR-5
SF-295 = system: SF-295
SF-539 = system: SF-539
SK-MEL-2 = system: SK-MEL-2
SK-OV-3 = system: SK-OV-3
SNB-19 = system: SNB-19
SR = system: SR
UACC-62 = system: UACC-62
DLD-1 = system: DLD-1
MCF7 = system: MCF7
MDA-MB-231 = system: MDA-MB-231
PC-3 = system: PC-3
SNB-78 = system: SNB-78

SMILES | GI50 (786-0) | GI50 (EKVX) | GI50 (HCT-116) | GI50 (HOP-92) | GI50 (K562) | GI50 (LXFL 529) | GI50 (NCI-H23) | GI50 (OVCAR-5) | GI50 (SF-295) | GI50 (SF-539) | GI50 (SK-MEL-2) | GI50 (SK-OV-3) | GI50 (SNB-19) | GI50 (SR) | GI50 (UACC-62) | GI50 (DLD-1) | GI50 (MCF7) | GI50 (MDA-MB-231) | GI50 (PC-3) | GI50 (SNB-78)
N#Cc1ccc(C(C2C(=O)NC(=O)NC2=O)C2C(=O)NC(=O)NC2=O)cc1 | > 100 µM (inactive) | > 100 µM (inactive) | > 100 µM (inactive) | > 100 µM (inactive) | 77.1 µM (inactive) | > 100 µM (inactive) | > 100 µM (inactive) | > 100 µM (inactive) | > 100 µM (inactive) | > 100 µM (inactive) | > 100 µM (inactive) | > 100 µM (inactive) | > 100 µM (inactive) | > 100 µM (inactive) | > 100 µM (inactive) |  |  |  |  | 
O=C1C2=C(SCCS2)C(=O)c2ccccc21 | 1.74 µM (inactive) | 1.39 µM (inactive) | 1.67 µM (inactive) | 1.68 µM (inactive) | 1.77 µM (inactive) | 1.64 µM (inactive) | 1.85 µM (inactive) | 1.83 µM (inactive) | 1.76 µM (inactive) | 1.72 µM (inactive) | 1.99 µM (inactive) | 1.73 µM (inactive) | 1.54 µM (inactive) | 1.2 µM (inactive) | 1.65 µM (inactive) | 1.96 µM (inactive) |  |  |  | 
O=C(N/N=C/c1cc(Br)ccc1O)N/N=C/c1cc(Br)ccc1O | 4.93 µM (inactive) | 4.93 µM (inactive) |  | 0.661 µM (active) | 0.377 µM (active) |  | 2.31 µM (inactive) | 2.84 µM (inactive) | 3.84 µM (inactive) | 0.877 µM (active) |  | 69 µM (inactive) | 5.31 µM (inactive) | 3.5 µM (inactive) | 2.24 µM (inactive) | 2.9 µM (inactive) |  |  |  | 
C=C1C(=O)O[C@@H]2C[C@]3(C)CC[C@]4(C)[C@H](CC[C@@H]5[C@@]6(C)CCC(=O)C(C)(C)[C@@H]6CC[C@]54C)[C@H]3[C@H]12 [OCHRACEOLIDE A] | 13.7 µM (inactive) | 19 µM (inactive) | 13.6 µM (inactive) | 9.31 µM (inactive) | 4.45 µM (inactive) |  | 23.7 µM (inactive) | 18.4 µM (inactive) | 17.8 µM (inactive) | 21.7 µM (inactive) | 22.4 µM (inactive) | 24 µM (inactive) | 26.9 µM (inactive) | 14.9 µM (inactive) | 16.9 µM (inactive) |  | 4.81 µM (inactive) | 24.7 µM (inactive) | 14.7 µM (inactive) | 
CCOC(=O)C1C(=O)C=C(c2cc(C)ccc2O)CC1c1cccc(Br)c1 (configuration not stated) | 17.6 µM (inactive) | 24 µM (inactive) | 18 µM (inactive) | 10.4 µM (inactive) | 11.7 µM (inactive) |  | 17.5 µM (inactive) | 25.1 µM (inactive) | 13.6 µM (inactive) | 16.2 µM (inactive) | 18.5 µM (inactive) | 14.2 µM (inactive) | 13.4 µM (inactive) | 5.13 µM (inactive) | 14 µM (inactive) |  | 14.9 µM (inactive) | 19.6 µM (inactive) | 7.8 µM (inactive) | 
O=C1c2ccccc2OP(=O)(OCC(F)(F)F)OC1(C(F)(F)F)C(F)(F)F (configuration not stated) | > 100 µM (inactive) | > 100 µM (inactive) | > 100 µM (inactive) | > 100 µM (inactive) | > 100 µM (inactive) | > 100 µM (inactive) | > 100 µM (inactive) | > 100 µM (inactive) | > 100 µM (inactive) | > 100 µM (inactive) | > 100 µM (inactive) | > 100 µM (inactive) | > 100 µM (inactive) | > 100 µM (inactive) | > 100 µM (inactive) |  |  |  |  | > 100 µM (inactive)
COc1ccc(/C=N\N2C(=O)Cc3ccccc32)cc1 | > 100 µM (inactive) | > 100 µM (inactive) | > 100 µM (inactive) | 22.3 µM (inactive) | 95.5 µM (inactive) |  | > 100 µM (inactive) | > 100 µM (inactive) | 51.6 µM (inactive) | 39 µM (inactive) | > 100 µM (inactive) | > 100 µM (inactive) | > 100 µM (inactive) |  | > 100 µM (inactive) | > 100 µM (inactive) |  |  |  | 91.2 µM (inactive)
Clc1ccc2c(c1)N(CCCN1CCCC13CCCCC3)c1ccccc1S2 | 10.8 µM (inactive) | 11.9 µM (inactive) | 13.9 µM (inactive) | 10.4 µM (inactive) | 3.95 µM (inactive) |  | 16.1 µM (inactive) | 17.3 µM (inactive) | 15.6 µM (inactive) | 17.2 µM (inactive) | 9.77 µM (inactive) | 20.8 µM (inactive) | 13.7 µM (inactive) | 4.39 µM (inactive) | 16.6 µM (inactive) |  | 14.3 µM (inactive) | 8.85 µM (inactive) | 8.04 µM (inactive) | 
Cc1cccc2c(=O)cc(-c3ccccc3)[nH]c12 | 4.78 µM (inactive) | 46.2 µM (inactive) | 5.06 µM (inactive) |  | 2 µM (inactive) | 4.61 µM (inactive) | 4.91 µM (inactive) |  | 4.09 µM (inactive) | 5.69 µM (inactive) | 4.6 µM (inactive) |  | 7.94 µM (inactive) | 6.93 µM (inactive) | 4.21 µM (inactive) | 4.31 µM (inactive) |  |  |  | 
CN1OC(CO)CC12C1CC3CC(C1)CC2C3 (configuration not stated) | > 100 µM (inactive) |  | > 100 µM (inactive) | > 100 µM (inactive) | > 100 µM (inactive) | > 100 µM (inactive) | > 100 µM (inactive) | > 100 µM (inactive) | > 100 µM (inactive) | > 100 µM (inactive) | > 100 µM (inactive) | > 100 µM (inactive) | > 100 µM (inactive) | > 100 µM (inactive) | > 100 µM (inactive) | > 100 µM (inactive) |  |  |  | 
Br/C(=N\N=c1/nn[nH][nH]1)c1ccncc1 | > 100 µM (inactive) | > 100 µM (inactive) | > 100 µM (inactive) | > 100 µM (inactive) | > 100 µM (inactive) |  | > 100 µM (inactive) | > 100 µM (inactive) | > 100 µM (inactive) | > 100 µM (inactive) | > 100 µM (inactive) | > 100 µM (inactive) | > 100 µM (inactive) | > 100 µM (inactive) | > 100 µM (inactive) |  | > 100 µM (inactive) | > 100 µM (inactive) | > 100 µM (inactive) | 
C=CCN(N=O)C(=O)N(CCCCC(NC(C)=O)C(=O)NCc1ccccc1)Cc1ccccc1 (configuration not stated) | 28.6 µM (inactive) | 38.1 µM (inactive) |  | 13.1 µM (inactive) | 26.9 µM (inactive) | 31.1 µM (inactive) | 46.5 µM (inactive) | > 100 µM (inactive) | 31 µM (inactive) | 38.1 µM (inactive) | 37.1 µM (inactive) | > 100 µM (inactive) | 51.5 µM (inactive) |  | 34.6 µM (inactive) |  |  |  |  | 
NCCNCC(O)CO (configuration not stated) | > 100 µM (inactive) | > 100 µM (inactive) | > 100 µM (inactive) | > 100 µM (inactive) | > 100 µM (inactive) |  | > 100 µM (inactive) | > 100 µM (inactive) | > 100 µM (inactive) | > 100 µM (inactive) | > 100 µM (inactive) | > 100 µM (inactive) | > 100 µM (inactive) | > 100 µM (inactive) | > 100 µM (inactive) |  | > 100 µM (inactive) | > 100 µM (inactive) | > 100 µM (inactive) | 
COc1ccc2nc(N/N=C/C(C)=N/Nc3cc(C)c4cc(OC)ccc4n3)cc(C)c2c1 | 14 µM (inactive) | 19.2 µM (inactive) | 14.2 µM (inactive) | 36.2 µM (inactive) | 3.9 µM (inactive) |  | 23.1 µM (inactive) | 27.4 µM (inactive) | 25.1 µM (inactive) | 17.8 µM (inactive) | > 68.1 µM (inactive) | > 83.8 µM (inactive) | 23.1 µM (inactive) | 5.11 µM (inactive) | 30.8 µM (inactive) |  | 14.3 µM (inactive) | 19 µM (inactive) | 22.3 µM (inactive) | 
COC(=O)/C=C/c1ccc2c(c1)[C@H](C(=O)OC)[C@@H](c1ccc(O)cc1)O2 | 30 µM (inactive) | 40 µM (inactive) | 38.5 µM (inactive) | 59 µM (inactive) | 4.06 µM (inactive) |  | 46.8 µM (inactive) | > 100 µM (inactive) | 31.4 µM (inactive) | 44.7 µM (inactive) | 4.62 µM (inactive) | 69 µM (inactive) | 21.9 µM (inactive) | 6.62 µM (inactive) | 20 µM (inactive) |  | 9.02 µM (inactive) | 14.8 µM (inactive) | 23.3 µM (inactive) | 
Cc1cc2c(=O)cc(-c3ccncc3)oc2c(C(N)=O)c1C | > 100 µM (inactive) | > 100 µM (inactive) | 83.4 µM (inactive) | > 100 µM (inactive) |  | > 100 µM (inactive) | > 100 µM (inactive) | > 100 µM (inactive) | > 100 µM (inactive) | > 100 µM (inactive) | > 100 µM (inactive) | > 100 µM (inactive) | > 100 µM (inactive) | > 100 µM (inactive) | 99.8 µM (inactive) |  |  |  |  | > 100 µM (inactive)
O=C1NN(c2ccccc2)C(=O)C2C3c4ccccc4C(c4ccccc43)C12 (configuration not stated) | > 100 µM (inactive) | > 100 µM (inactive) | 75 µM (inactive) | > 100 µM (inactive) | 43.2 µM (inactive) |  | > 100 µM (inactive) | > 10 µM (inactive) | 80 µM (inactive) | > 100 µM (inactive) | > 100 µM (inactive) | > 100 µM (inactive) | > 100 µM (inactive) | > 100 µM (inactive) | > 100 µM (inactive) |  | 44.2 µM (inactive) | 41 µM (inactive) | 24.3 µM (inactive) | 
